According to patent US10550080B2 (BRISTOL-MYERS SQUIBB COMPANY, priority 2016, dated 2020):

Columns and labels:
NaV1.7 = NaV1.7 (Homo sapiens (Human), UniProt Q15858); experiment: Automated electrophysiology, IonWorks Barracuda population patch clamp, NaV1.7 current (inactivated-state protocol); assay type: cell-based; details: HEK 293 cells expressing NaV1.7; 600 sec compound incubation; read-out: NaV1.7 Barra IC50
Procedure: (§1) Automated Electrophysiology: Ion Works Barracuda population patch clamp (PPC). PPC measurements were performed using an IonWorks Barracuda instrument (Molecular Devices Corporation, Union City, Calif.) using either PatchPlate™ PPC substrates (Molecular Devices Corporation) with 64 apertures per well. The ability to average currents from 64 recordings from each well greatly improves data consistency and recording success rates in the measurement of NaV1.7 mediated ionic currents. Calculated leak current was digitally subtracted from the total cell NaV1.7 current for each sample point acquired.
(§2) NaV1.7 currents were elicited by a voltage clamp protocol designed to bias the NaV1.7 channels to their inactivated state as follows. From holding potential of −60 mV cells were briefly hyperpolarized to −100 mV for 1.25 sec, then stepped to −20 mV for 20 sec to inactivate the channels. This was followed by a relatively brief hyperpolarization to −100 mv for 300 ms, then a 20 msec test pulse to −20 mV to elicit the NaV1.7 current used to measure the pharmacology of all test compounds. Compounds were incubated for 600 sec between the pre- and post-compound reads. The external recording solution used was (in mM) 137 NaCl, 4 KCl, 1 MgCl2, 1.8 CaCl2, 10 Hepes, 10 glucose, pH to 7.4 with NaOH, and the internal solution used was (in mM) 100 K-gluconate, 40 KCl, 3.2 zMgCl2, 5 EGTA, 10 HEPES pH to 7.2 with KOH. The same solutions were used to record NaV1.5 currents, with the following voltage clamp protocol. NaV1.5 currents were elicited by a voltage clamp protocol designed to bias the NaV1.5 channels to their inactivated state as follows. From holding potential of −40 mV cells were briefly hyperpolarized to −100 mV for 300 ms, then stepped to −10 mV for 20 sec to inactivate the channels. This was followed by a relatively brief hyperpolarization to −100 mv for 30 ms, then a 20 msec test pulse to −10 mV to elicit the NaV1.5 current used to measure the pharmacology of all test compounds.
(§3) HEK 293 cells expressing NaV1.7 and NaV1.5 channels, were used (Essen Biosciences, Ann Arbor, Mich.). Cells were cultured in T-175 flasks and passaged every 2 to 3 days at 1:3 to 1:6 seeding density dilutions. Cells were grown to 70% to 90% confluence in a flask and removed from the incubator (37° C., 5% CO2) 1 to 3 days after plating. Growth medium was aspirated from the culture flasks. Cells were gently rinsed with 10 ml of PBS (Catalog number: 14190144, Gibco) to remove residual media. Next a total of 2 mL TrypLE (Gibco) solution was added, and the flasks containing cells were sat for 3 min at RT, after which, the cells became visibly rounded and were easily dislodged from the bottom of the flask with a few brief taps on a solid surface. A total of 8 mL of media was added to the flask to inactivate the TrypLE, and the mixture was centrifuged at 910 rpm for 4 min. The cell supernatant was decanted, and the cell pellets were resuspended in 5-6 mL of external solution followed by gentle triturations using a 10 ml pipette, and transferred to a 15 ml conical tube and immediately brought to the IW Barracuda instrument.
(§4) Peak membrane currents were analyzed with IW Barracuda software and exported to Excel for further analysis. Concentration response curve fitting was performed with BMS in-house software. IC50 values were obtained by fits of the Hill equation to the average percent inhibition data plotted versus compound concentration. […] Results are reported in Table 1 (NaV1.7 Barra IC50 in nM and NaV1.5 Barra IC50 in nM).

hNaV1.7 = hNaV1.7 (Homo sapiens (Human), UniProt Q15858); experiment: Ligand Binding Assay (LBA), radioligand displacement on hNaV1.7 HEK293 cell membranes; details: 0.5 nM [3H] radioligand, 24 hours at room temperature; read-out: NaV1.7 LBA IC50
Chain of hNaV1.7 (Q15858 whole entry): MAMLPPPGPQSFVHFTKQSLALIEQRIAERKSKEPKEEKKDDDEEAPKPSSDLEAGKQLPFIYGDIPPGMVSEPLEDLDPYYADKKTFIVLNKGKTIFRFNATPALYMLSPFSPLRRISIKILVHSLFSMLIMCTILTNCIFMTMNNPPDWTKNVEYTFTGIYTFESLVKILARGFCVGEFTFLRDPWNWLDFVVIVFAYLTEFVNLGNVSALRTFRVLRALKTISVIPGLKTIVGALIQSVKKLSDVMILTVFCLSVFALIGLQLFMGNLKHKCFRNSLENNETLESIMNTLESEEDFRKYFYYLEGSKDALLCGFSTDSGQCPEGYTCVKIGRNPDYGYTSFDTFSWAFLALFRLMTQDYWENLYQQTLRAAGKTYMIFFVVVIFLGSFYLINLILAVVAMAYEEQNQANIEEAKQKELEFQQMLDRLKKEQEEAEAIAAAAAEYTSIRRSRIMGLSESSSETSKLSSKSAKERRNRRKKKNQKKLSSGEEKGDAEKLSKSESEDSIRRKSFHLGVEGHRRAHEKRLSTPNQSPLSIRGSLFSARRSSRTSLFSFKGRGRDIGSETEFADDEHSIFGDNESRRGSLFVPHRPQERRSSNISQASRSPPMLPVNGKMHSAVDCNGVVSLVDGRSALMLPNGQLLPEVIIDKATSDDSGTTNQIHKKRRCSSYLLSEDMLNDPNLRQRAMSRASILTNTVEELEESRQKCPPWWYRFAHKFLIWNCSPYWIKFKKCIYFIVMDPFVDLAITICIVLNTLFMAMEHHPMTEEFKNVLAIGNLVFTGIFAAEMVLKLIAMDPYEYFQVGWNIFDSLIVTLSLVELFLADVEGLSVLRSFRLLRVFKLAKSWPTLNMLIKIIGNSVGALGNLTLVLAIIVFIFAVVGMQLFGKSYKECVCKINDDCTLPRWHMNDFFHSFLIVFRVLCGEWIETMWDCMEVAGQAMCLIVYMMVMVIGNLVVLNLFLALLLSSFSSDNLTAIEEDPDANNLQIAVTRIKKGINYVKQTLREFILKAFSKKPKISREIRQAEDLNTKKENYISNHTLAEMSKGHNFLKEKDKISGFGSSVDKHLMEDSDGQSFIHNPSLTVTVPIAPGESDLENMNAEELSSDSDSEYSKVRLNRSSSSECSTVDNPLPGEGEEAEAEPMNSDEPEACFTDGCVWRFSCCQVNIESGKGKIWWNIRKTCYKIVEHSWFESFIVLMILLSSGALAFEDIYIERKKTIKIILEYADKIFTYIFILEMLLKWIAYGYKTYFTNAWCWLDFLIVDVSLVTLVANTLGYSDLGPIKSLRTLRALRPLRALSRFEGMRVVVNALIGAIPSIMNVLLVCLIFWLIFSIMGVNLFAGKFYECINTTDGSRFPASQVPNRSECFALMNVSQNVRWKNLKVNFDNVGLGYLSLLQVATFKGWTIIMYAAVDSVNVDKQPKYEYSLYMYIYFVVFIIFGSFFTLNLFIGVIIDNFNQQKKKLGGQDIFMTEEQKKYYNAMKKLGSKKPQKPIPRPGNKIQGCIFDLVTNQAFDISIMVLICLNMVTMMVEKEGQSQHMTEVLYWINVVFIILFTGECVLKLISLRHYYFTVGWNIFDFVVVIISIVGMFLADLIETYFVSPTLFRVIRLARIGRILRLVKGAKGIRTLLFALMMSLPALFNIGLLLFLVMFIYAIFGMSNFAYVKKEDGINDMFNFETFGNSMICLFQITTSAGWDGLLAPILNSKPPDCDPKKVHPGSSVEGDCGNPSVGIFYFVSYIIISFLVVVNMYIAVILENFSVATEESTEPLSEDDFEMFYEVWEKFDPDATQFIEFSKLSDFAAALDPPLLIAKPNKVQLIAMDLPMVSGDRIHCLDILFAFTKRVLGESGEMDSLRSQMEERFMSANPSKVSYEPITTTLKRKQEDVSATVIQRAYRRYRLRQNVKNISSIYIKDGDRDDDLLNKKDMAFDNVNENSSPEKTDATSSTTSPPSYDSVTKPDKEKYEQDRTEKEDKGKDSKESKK
Procedure: Ligand Binding Assay (LBA): hNaV1.7 binding affinities were determined with a filtration binding assay using purified membranes from HEK293 cells stably expressing hNaV1.7. HEK293 cells from a 10-stack cell culture flask (approximately 10^10 cells) were dissociated, frozen, and stored at −80° C. To prepare membranes, the frozen cell pellet was thawed and suspended in 6 ml hypotonic lysis buffer (50 mM HEPES, 0.1% mammalian protease inhibitor cocktail). 1 ml of resuspended cells was added to an additional 6 ml of lysis buffer and homogenized with 30 strokes of a tight pestle in a glass homogenizer. Homogenate was centrifuged at 1000×g for 10 minutes at 4° C. and the resulting supernatant was further centrifuged at 38,500×g for 60 minutes at 4° C. The resulting pellet was resuspended in binding buffer (50 mM HEPES, 130 mM NaCl, 5.4 mM KCl, 0.8 mM MgCl2, 5 mM glucose, pH 7.4) and needle homogenized with a 25 gauge needle. Protein concentration was determined with a BCA protein assay. Purified membranes were aliquoted, flash frozen in an ethyl alcohol dry ice bath, and stored at −80° C. To measure displacement of a radiolabeled ligand, 50 μg of purified hNaV1.7 HEK cell membranes were incubated with test compounds (eight concentrations, in duplicate) and 0.5 nM [3H] labeled radioligand in a 96 well plate for 24 hours at room temperature on a shaker. The total binding reaction volume was 250 μl, consisting of 200 μl purified hNaV1.7 HEK cell membranes, 25 μl test compound, and 25 μl radioligand. Non-specific binding was defined by 20 μM of a reference hNaV1.7 inhibitor. Binding reactions were terminated by filtration through GF/B filters presoaked in 0.5% polyethyleneamine. Filters were washed 5 times with 2 ml each of 4′C wash buffer (50 mM Tris-HCl, pH 7.4 at 4° C.). Bound radioactivity captured on the filters was counted on a liquid scintillation counter. Specific binding, expressed as % inhibition, was fit with Graphpad Prism software to determine binding IC50 values. Results are reported in Table 1 (NaV1.7 LBA IC50 in nM).

NaV1.5 = NaV1.5 (Homo sapiens (Human), UniProt Q14524); experiment: Automated electrophysiology, IonWorks Barracuda population patch clamp, NaV1.5 current (inactivated-state protocol); assay type: cell-based; details: HEK 293 cells expressing NaV1.5; read-out: NaV1.5 Barra IC50
Chain of NaV1.5 (Q14524 whole entry): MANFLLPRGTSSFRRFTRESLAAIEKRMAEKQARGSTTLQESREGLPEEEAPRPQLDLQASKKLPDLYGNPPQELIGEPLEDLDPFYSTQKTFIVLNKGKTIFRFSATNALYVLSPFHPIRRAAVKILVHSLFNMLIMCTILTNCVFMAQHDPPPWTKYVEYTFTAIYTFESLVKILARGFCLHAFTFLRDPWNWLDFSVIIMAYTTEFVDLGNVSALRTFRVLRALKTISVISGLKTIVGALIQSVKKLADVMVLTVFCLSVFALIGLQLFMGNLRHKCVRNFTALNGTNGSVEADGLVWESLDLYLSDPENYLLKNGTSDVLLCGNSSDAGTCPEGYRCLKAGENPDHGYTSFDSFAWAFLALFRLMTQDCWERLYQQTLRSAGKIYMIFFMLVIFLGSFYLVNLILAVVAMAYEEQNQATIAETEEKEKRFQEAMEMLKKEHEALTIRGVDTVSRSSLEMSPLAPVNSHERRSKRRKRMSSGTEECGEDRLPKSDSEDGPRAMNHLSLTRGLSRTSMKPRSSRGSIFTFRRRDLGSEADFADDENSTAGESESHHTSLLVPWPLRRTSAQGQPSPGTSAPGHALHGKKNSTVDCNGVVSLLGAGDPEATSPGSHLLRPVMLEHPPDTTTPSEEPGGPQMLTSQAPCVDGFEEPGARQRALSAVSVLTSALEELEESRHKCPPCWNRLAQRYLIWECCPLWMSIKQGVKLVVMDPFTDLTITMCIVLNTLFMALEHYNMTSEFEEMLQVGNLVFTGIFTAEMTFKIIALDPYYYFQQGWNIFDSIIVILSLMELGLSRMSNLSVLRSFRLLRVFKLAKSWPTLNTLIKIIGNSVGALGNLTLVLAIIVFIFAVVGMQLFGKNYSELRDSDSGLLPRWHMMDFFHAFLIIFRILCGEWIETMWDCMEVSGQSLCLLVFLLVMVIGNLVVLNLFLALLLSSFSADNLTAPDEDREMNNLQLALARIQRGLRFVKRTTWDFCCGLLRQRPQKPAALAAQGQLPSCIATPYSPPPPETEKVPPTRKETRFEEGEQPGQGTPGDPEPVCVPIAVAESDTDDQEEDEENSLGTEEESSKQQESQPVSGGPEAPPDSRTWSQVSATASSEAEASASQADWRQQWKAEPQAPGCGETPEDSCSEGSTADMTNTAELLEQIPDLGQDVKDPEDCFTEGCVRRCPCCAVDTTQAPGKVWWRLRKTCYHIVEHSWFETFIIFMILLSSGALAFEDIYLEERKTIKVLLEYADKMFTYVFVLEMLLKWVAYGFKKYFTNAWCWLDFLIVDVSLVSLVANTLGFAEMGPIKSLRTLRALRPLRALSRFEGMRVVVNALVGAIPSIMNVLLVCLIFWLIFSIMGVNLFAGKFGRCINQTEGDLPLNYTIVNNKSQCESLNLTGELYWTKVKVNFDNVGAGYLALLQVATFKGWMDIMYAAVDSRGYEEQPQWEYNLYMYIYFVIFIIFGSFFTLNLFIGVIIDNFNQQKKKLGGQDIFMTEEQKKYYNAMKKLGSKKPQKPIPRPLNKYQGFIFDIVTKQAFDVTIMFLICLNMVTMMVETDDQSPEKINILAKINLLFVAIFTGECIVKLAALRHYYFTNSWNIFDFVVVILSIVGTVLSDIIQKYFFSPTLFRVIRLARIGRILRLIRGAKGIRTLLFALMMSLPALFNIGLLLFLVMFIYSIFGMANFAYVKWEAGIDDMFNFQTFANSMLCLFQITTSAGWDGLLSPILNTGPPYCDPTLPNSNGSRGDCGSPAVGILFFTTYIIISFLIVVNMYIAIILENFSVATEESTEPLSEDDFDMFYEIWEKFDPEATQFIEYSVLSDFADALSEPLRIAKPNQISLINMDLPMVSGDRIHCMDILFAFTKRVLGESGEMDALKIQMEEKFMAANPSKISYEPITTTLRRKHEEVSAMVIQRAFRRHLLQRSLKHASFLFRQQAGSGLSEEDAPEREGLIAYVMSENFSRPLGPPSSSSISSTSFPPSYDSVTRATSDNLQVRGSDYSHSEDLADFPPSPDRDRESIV
Procedure: as §1, §2, §3, §4

Chain of NaV1.7 (Q15858 whole entry): as the sequence (Q15858 whole entry) above

With `Cn1cc(-c2ccc(C(F)(F)F)cc2)c2ccc(C(=O)NS(C)(=O)=O)cc21` [Example 1, 1-Methyl-N-(methylsulfonyl)-3-(4-(trifluoromethyl)phenyl)-1H-indole-6-carboxamide] as the compound, how does the IC50 (NaV1.7) read?
The IC50 was 85 nM.

What about the IC50 (hNaV1.7) of the same compound?
Its IC50 is 422 nM.

And the IC50 (NaV1.5)?
The IC50 was 19600 nM.

With `CC(C)COc1ncc(-c2cn(C)c3cc(C(=O)NS(C)(=O)=O)ccc23)cc1Cl` [Example 2, 3-(5-Chloro-6-isobutoxypyridin-3-yl)-1-methyl-N-(methylsulfonyl)-1H-indole-6-carboxamide] as the compound, how does the IC50 (NaV1.7) read?
The IC50 was 90 nM.

And the IC50 (hNaV1.7)?
Its IC50 is 91 nM.

And the IC50 (NaV1.5)?
The IC50 was 18300 nM.

How did the IC50 (NaV1.7) turn out when `Cn1cc(-c2cccc(F)c2F)c2ccc(C(=O)NS(C)(=O)=O)cc21` [Example 3, 3-(2,3-Difluorophenyl)-1-methyl-N-(methylsulfonyl)-1H-indole-6-carboxamide] was run?
Its IC50 is 2860 nM.

What about the IC50 (hNaV1.7) of the same compound?
The IC50 was 4940 nM.

And the IC50 (NaV1.5)?
Its IC50 is over 30000 nM.

How did the IC50 (NaV1.7) turn out when `Cn1cc(-c2ccc(OC(F)(F)F)cc2)c2ccc(C(=O)NS(C)(=O)=O)cc21` [Example 4, 1-Methyl-N-(methylsulfonyl)-3-(4-(trifluoromethoxy)phenyl)-1H-indole-6-carboxamide] was run?
The IC50 was 80 nM.

And the IC50 (hNaV1.7)?
Its IC50 is 243 nM.

What about the IC50 (NaV1.5) of the same compound?
Its IC50 is 18300 nM.

Which results are given for `Cn1cc(-c2ccccc2)c2ccc(C(=O)NS(C)(=O)=O)cc21` [Example 5, 1-Methyl-N-(methylsulfonyl)-3-phenyl-1H-indole-6-carboxamide]?
IC50 (NaV1.7): 743 nM; IC50 (hNaV1.7): 7270 nM; IC50 (NaV1.5): > 30000 nM

How did the IC50 (NaV1.7) turn out when `COc1ncccc1-c1cn(C)c2cc(C(=O)NS(C)(=O)=O)ccc12` [Example 6, 3-(2-Methoxypyridin-3-yl)-1-methyl-N-(methylsulfonyl)-1H-indole-6-carboxamide] was run?
The IC50 was over 30000 nM.

What about the IC50 (hNaV1.7) of the same compound?
Its IC50 is over 30000 nM.

What about the IC50 (NaV1.5) of the same compound?
The IC50 was over 30000 nM.

Which IC50 (NaV1.7) does the source give for `Cn1cc(-c2cncc(F)c2)c2ccc(C(=O)NS(C)(=O)=O)cc21` [Example 7, 3-(5-Fluoropyridin-3-yl)-1-methyl-N-(methylsulfonyl)-1H-indole-6-carboxamide] here?
Its IC50 is over 30000 nM.

What about the IC50 (NaV1.5) of the same compound?
The IC50 was over 30000 nM.

How did the IC50 (NaV1.7) turn out when `Cn1cc(-c2cccnc2)c2ccc(C(=O)NS(C)(=O)=O)cc21` [Example 8, 1-Methyl-N-(methylsulfonyl)-3-(pyridin-3-yl)-1H-indole-6-carboxamide] was run?
Its IC50 is over 30000 nM.

Which IC50 (NaV1.7) does the source give for `CCOc1ncc(-c2cn(C)c3cc(C(=O)NS(C)(=O)=O)ccc23)cn1` [Example 9, 3-(2-Ethoxypyrimidin-5-yl)-1-methyl-N-(methylsulfonyl)-1H-indole-6-carboxamide] here?
Its IC50 is over 30000 nM.

What about the IC50 (hNaV1.7) of the same compound?
The IC50 was over 20000 nM.

What about the IC50 (NaV1.5) of the same compound?
Its IC50 is over 30000 nM.

Which results are given for `Cc1ccc(-c2cn(C)c3cc(C(=O)NS(C)(=O)=O)ccc23)cc1` [Example 10, 1-Methyl-N-(methylsulfonyl)-3-(p-tolyl)-1H-indole-6-carboxamide]?
IC50 (NaV1.7): 739 nM; IC50 (hNaV1.7): 1030 nM; IC50 (NaV1.5): > 30000 nM

How did the IC50 (NaV1.7) turn out when `Cn1cc(-c2ccc(C(F)(F)F)cc2Cl)c2ccc(C(=O)NS(C)(=O)=O)cc21` [Example 11, 3-(2-Chloro-4-(trifluoromethyl)phenyl)-1-methyl-N-(methylsulfonyl)-1H-indole-6-carboxamide] was run?
Its IC50 is 604 nM.

And the IC50 (hNaV1.7)?
The IC50 was 750 nM.

What about the IC50 (NaV1.5) of the same compound?
Its IC50 is 8640 nM.

Which IC50 (NaV1.7) does the source give for `CC(C)Cc1ccc(-c2cn(C)c3cc(C(=O)NS(C)(=O)=O)ccc23)cc1` [Example 12, 3-(4-Isobutylphenyl)-1-methyl-N-(methylsulfonyl)-1H-indole-6-carboxamide] here?
The IC50 was 363 nM.

What about the IC50 (hNaV1.7) of the same compound?
The IC50 was 317 nM.

And the IC50 (NaV1.5)?
Its IC50 is over 30000 nM.

With `Cn1cc(-c2cccc(C(F)(F)F)c2)c2ccc(C(=O)NS(C)(=O)=O)cc21` [Example 13, 1-Methyl-N-(methylsulfonyl)-3-(3-(trifluoromethyl)phenyl)-1H-indole-6-carboxamide] as the compound, how does the IC50 (NaV1.7) read?
The IC50 was 1420 nM.

What about the IC50 (hNaV1.7) of the same compound?
Its IC50 is 290 nM.

And the IC50 (NaV1.5)?
Its IC50 is over 30000 nM.

For `CCc1ccc(-c2cn(C)c3cc(C(=O)NS(C)(=O)=O)ccc23)cc1` [Example 14, 3-(4-Ethylphenyl)-1-methyl-N-(methylsulfonyl)-1H-indole-6-carboxamide], which IC50 (NaV1.7) is on record?
Its IC50 is 173 nM.

And the IC50 (hNaV1.7)?
Its IC50 is 554 nM.

And the IC50 (NaV1.5)?
The IC50 was over 30000 nM.

What does the source list for `Cc1cccc(-c2cn(C)c3cc(C(=O)NS(C)(=O)=O)ccc23)c1` [Example 15, 1-Methyl-N-(methylsulfonyl)-3-(m-tolyl)-1H-indole-6-carboxamide]?
IC50 (NaV1.7): 375 nM; IC50 (hNaV1.7): 943 nM; IC50 (NaV1.5): > 30000 nM

With `CC(C)COc1ccc(-c2cn(C)c3cc(C(=O)NS(C)(=O)=O)ccc23)cc1` [Example 22, 3-(4-Isobutoxyphenyl)-1-methyl-N-(methylsulfonyl)-1H-indole-6-carboxamide] as the compound, how does the IC50 (NaV1.7) read?
Its IC50 is 525 nM.

What about the IC50 (hNaV1.7) of the same compound?
The IC50 was 275 nM.

`CC(C)COc1ncc(-c2cn(C)c3cc(C(=O)NS(=O)(=O)N(C)C)ccc23)cc1Cl` [Example 25, 3-(5-Chloro-6-isobutoxypyridin-3-yl)-N—(N,N-dimethylsulfamoyl)-1-methyl-1H-indole-6-carboxamide] was tested. Which IC50 (NaV1.7) did it give?
The IC50 was 1280 nM.

And the IC50 (NaV1.5)?
Its IC50 is 6330 nM.

What does the source list for `CC(C)COc1ncc(-c2cn(C)c3cc(C(=O)NS(=O)(=O)N4CCCCC4)ccc23)cc1Cl` [Example 26, 3-(5-Chloro-6-isobutoxypyridin-3-yl)-1-methyl-N-(piperidin-1-ylsulfonyl)-1H-indole-6-carboxamide]?
IC50 (NaV1.7): 4180 nM; IC50 (NaV1.5): 8770 nM

Which IC50 (NaV1.7) does the source give for `CC(C)COc1ncc(-c2cn(CC(C)C)c3cc(C(=O)NS(C)(=O)=O)ccc23)cc1Cl` [Example 27, 3-(5-Chloro-6-isobutoxypyridin-3-yl)-1-isobutyl-N-(methylsulfonyl)-1H-indole-6-carboxamide] here?
The IC50 was 3330 nM.

What about the IC50 (NaV1.5) of the same compound?
The IC50 was 23700 nM.

Which IC50 (NaV1.7) does the source give for `CC(C)COc1ncc(-c2cn(CC(C)C)c3cc(C(=O)NS(=O)(=O)C4CC4)ccc23)cc1Cl` [Example 28, 3-(5-Chloro-6-isobutoxypyridin-3-yl)-N-(cyclopropylsulfonyl)-1-isobutyl-1H-indole-6-carboxamide] here?
Its IC50 is 8050 nM.

And the IC50 (NaV1.5)?
The IC50 was 11300 nM.

What does the source list for `CN(C)S(=O)(=O)NC(=O)c1ccc2c(-c3ccc(C(F)F)cc3)cn(C)c2c1` [Example 32, 3-(4-(Difluoromethyl)phenyl)-N—(N,N-dimethylsulfamoyl)-1-methyl-1H-indole-6-carboxamide]?
IC50 (NaV1.7): 1910 nM; IC50 (NaV1.5): > 30000 nM

With `CN(C)S(=O)(=O)NC(=O)c1ccc2c(-c3ccc(C(F)(F)F)cc3)cn(C)c2c1` [Example 33] as the compound, how does the IC50 (NaV1.7) read?
Its IC50 is 1920 nM.

And the IC50 (NaV1.5)?
The IC50 was 24500 nM.
